Experiment: Curing of powder coating formulation, conversion of epoxy groups by ATR-IR
Conditions: for Conversion at 5′ 100° C. / Conversion 5′ 100° C.: 5 min 100° C.; for Conversion at 15′ 120° C.: 15 min 120° C.; for Conversion at 5′ 130° C. / Conversion 5′ 130° C.: 5 min 130° C.; for Conversion at 5′ 150° C. / Conversion 5′ 150° C.: 5 min 150° C.; for Conversion 5′ 100° C. / Conversion 5′ 130° C. / Conversion 5′ 150° C. / Conversion 5′ 180° C.: Table 4, amount 1 wt. %; for Conversion 5′ 180° C.: 5 min 180° C.
Description: A powder coating formulation consisting of an acidic functional polyester and an epoxy functional polymer that cures without a catalyst at 200° C. for 20 minutes is used. The solid coating formulation is dissolved at 50% solids in methyl-iso-butyl ketone for ease of application. The curing catalyst is added in varying amounts from 0.5 up to 1.5% by weight, based on solids. The thermolatent compounds are compared with imidazole or compound 1 as a reference base. The formulation is applied at wet thickness 250 μm using a wire bar. The solvent is evaporated at room temperature during 30 minutes, and the coating formulation is cured for given times and at the specified temperature (cf. Tables 2 to 4). The curing progress is evaluated using attenuated total reflection infrared (IR) spectroscopy. The fading of the epoxy-attributable peak at 899-921 cm^−1 in comparison to the stable reference peak at 814-841 cm^−1 is used for the calculation of the conversion of epoxy groups.

Structure (SMILES)	Conversion at 5′ 100° C. (amount 0.5 wt. %)	Conversion at 15′ 120° C. (amount 0.5 wt. %)	Conversion at 5′ 130° C. (amount 0.5 wt. %)	Conversion at 5′ 150° C. (amount 0.5 wt. %)	Conversion at 5′ 130° C. (amount 1.0 wt. %)	Conversion at 5′ 150° C. (amount 1.0 wt. %)	Conversion at 5′ 130° C. (amount 1.5 wt. %)	Conversion at 5′ 150° C. (amount 1.5 wt. %)	Conversion 5′ 100° C.	Conversion 5′ 130° C.	Conversion 5′ 150° C.	Conversion 5′ 180° C.
C1=CC2=NCCN2C=C1 [Compound 1, reference compound]	13%	98%	–	–	–	–	–	–	–	–	–	–
OCCNc1ccccn1 [Compound 2, 2-(pyridine-2-ylamino)ethanol]	–	–	26%	97%	–	–	–	–	–	–	–	–
CC(C)(C)OC(=O)OCCNc1ccccn1 [Compound 3]	–	–	–	–	22%	94%	23%	100%	–	–	–	–
CCNC(=O)OCCNc1ccccn1 [Compound 7]	–	–	–	–	14%	95%	29%	93%	–	–	–	–
CN(C)CCCNc1ccc2ccccc2n1 [Compound 16]	–	–	–	–	–	–	–	–	0%	0%	20%	100%
c1c[nH]cn1 [imidazole, reference compound]	26%	100%	35%	100%	–	–	–	–	53%	74%	100%	100%

Source: US8969577B2, “Curable composition comprising a thermolatent base” (BASF SE, priority 2008, dated 2015)
